Source: patent US20050113331A1, “Compositions and methods for use of antiviral drugs in the treatment of retroviral diseases resistant to nucleoside reverse transcriptase inhibitors” (priority 2003, published 2005)
Where two headings read alike, the source gives them in different places.

Experiments:
wild type HIV-1 = test: Antiviral activity against wild type HIV-1 in P4/R5 cells; format: cell-based; details: Human immunodeficiency virus 1, compound alone, read-out: EC50 against replication
AZT-resistant HIV-1 = test: Antiviral activity against AZT-resistant HIV-1 in P4/R5 cells; format: cell-based
Description: P4/R5 cells are plated in 96-well culture dishes at a cell density of 3×10^3 cells/well in 100 μl DMEM/10% fetal bovine serum. In one set of plates, bisphosphonate variants are added (25μM final concentration in FIG. 6) to individual wells. In another identical set of plates, bisphosphonate variants are added along with specific concentrations of AZT (0.1 μM final concentration in FIG. 6). Each well is inoculated with AZT-resistant HIV (multiplicity of infection=1), and the cells are incubated at 37° C. for 48 hours. The cells are then washed and the extent of HIV infection is determined fluorometrically. The percent inhibition of HIV replication is calculated as [1-(fluorescence signal of cells infected in the presence of bisphosphonate divided by the fluorescence signal of cells infected in the absence of any drug)] multiplied by 100.

[1] = target: TAM-mutant HIV-1 reverse transcriptase (UniProt P04585); format: biochemical; design: other: preferred BPH variants; details: read-out: Estimated IC50; preferred BPH variants; quantity inhibited not given
Description: (§1) An 18 nucleotide DNA oligonucleotide (“primer DNA”) of sequence 5′-[…]-3′ was 5′ end labeled using [y^32p]-ATP and T4 polynucleotide kinase. The labeled primer DNA was purified by polyacrylamide gel electrophoresis, and then annealed to a synthetic DNA oligonucleotide (“template DNA”) of the sequence 5′-[…] […]-3′, to form “template/primer DNA”. Template/primer DNA was then chain-terminated with AZTMP by incubating for 30 minutes at 37° C. with HIV-1 reverse transcriptase in 50 mM Tris-HCl, pH 7.8, containing 60 mM KCl, 10 mM MgCl2, and 100 μM AZTTP. The total incubation sample was then dried under reduced pressure and the [^32P]-labeled, 3′-AZTMP-terminated primer DNA (now 19 nucleotides in length) was purified by polyacrylamide gel electrophoresis. The purified [^32P]-labeled, 3′-AZTMP-terminated primer DNA was annealed to template DNA to form the nucleic acid excision substrate (termed “AZTMP-T/P”).
(§2) At various times thereafter, aliquots were removed and quenched by dilution into sequencing gel loading buffer (98% deionized formamide, 10 mM EDTA, and 1 mg/mL each of bromophenol blue and xylene cyanol). Samples were heated at 100° C. for 5 minutes then subjected to polyacylamide gel electrophoresis using 16% polyacrylamide/7 M urea gels. Electrophoretically resolved products were visualized and quantified by phosphorimaging analysis.
(§3) The [^32P]-labeled, 3′-AZTMP-terminated nucleic acid excision substrate (“AZTMP-T/P”) is made as described in Example 2. […] After 10 minutes (for reactions with ATP) or 5 minutes (for reactions with sodium pyrophosphate), the reactions are stopped by the addition of 2 volumes of sequencing gel loading buffer (98% deionized formamide, 10 mM EDTA, and 1 mg/ml each of bromophenol blue and xylene cyanol). An identical control reaction in which RT is omitted is also carried out simultaneously. Samples are heated at 100° C. for 5 minutes then subjected to polyacylamide gel electrophoresis using 16% polyacrylamide/7 M urea gels. Electrophoretically resolved products are visualized and quantified by phosphorimaging analysis. The percent excision is defined by the amount of the 19 nucleotide [^32P]-labeled, 3′-AZTMP-terminated primer DNA in the sample divided by the amount of the 19 nucleotide [^32P]-labeled, 3′-AZTMP-terminated primer DNA in the control, multiplied by 100.

[2] = target: TAM-mutant HIV-1 reverse transcriptase (UniProt P04585); format: biochemical; design: AZT-terminated DNA that had undergone excision; other: 20 micromolar 218A, 3 mM ATP, after 10 minutes; 65% without bisp; other: 5 micromolar bisphosphonate, 3 mM ATP, after 10 min; 65% without; details: for % Inhibition of AZT excision: BPH concentration not given
Description: as §1, §2, §3

Cc1cn([C@H]2C[C@H](N=[N+]=[N-])[C@@H](CO)O2)c(=O)[nH]c1=O [AZT, 3′-azido-3′-deoxythymidine]
EC50 (wild type HIV-1): ~0.14 µM | EC50 (AZT-resistant HIV-1; Human immunodeficiency virus 1, P4/R5, read-out: EC50 of AZT in the presence of 218A): > 0.025 µM | inhibition at 0.1 µM (AZT-resistant HIV-1; Human immunodeficiency virus 1, P4/R5, 0.1 μM final concentration, alone, 48 hours, FIG. 6, read-out: percent inhibition of HIV replication): 2% | EC50 (AZT-resistant HIV-1; Human immunodeficiency virus 1, compound alone, P4/R5 cells, read-out: EC50 against replication): ~1.2 µM

O=P(O)(O)C(Nc1ccc(Br)cn1)P(=O)(O)O [Compound 48B]
IC50 [1]: 3.4 µM

O=P(O)(O)C(Nc1ccc2c(c1)CCC2)P(=O)(O)O [Compound 215A]
% Inhibition of AZT excision [2]: 75% | IC50 [1]: 4.5 µM

CCn1c2ccccc2c2cc(NC(P(=O)(O)O)P(=O)(O)O)ccc21 [Compound 228A]
% Inhibition of AZT excision [2]: 60% | IC50 [1]: 4.1 µM

O=P(O)(O)C(Nc1ccc(Cl)cc1Cl)P(=O)(O)O [Compound 244A]
IC50 [1]: 8 µM

CC(C)c1cccc(NC(P(=O)(O)O)P(=O)(O)O)c1 [Compound 248A]
% Inhibition of AZT excision [2]: 59% | IC50 [1]: 3.7 µM

O=P(O)(O)C(O)(Cc1cccc(C(F)(F)F)c1)P(=O)(O)O [Compound 250A]
% Inhibition of AZT excision [2]: 68% | IC50 [1]: 2.9 µM

O=P(O)(O)C(O)(Cc1cccc(I)c1)P(=O)(O)O [Compound 251A]
IC50 [1]: 3.4 µM

O=P(O)(O)C(O)(Cc1cccc(Cl)c1)P(=O)(O)O [Compound 253A]
% Inhibition of AZT excision [2]: 70% | IC50 [1]: 3.1 µM

O=P(O)(O)C(O)(Cc1cccc(Br)c1)P(=O)(O)O [Compound 255A]
% Inhibition of AZT excision [2]: 76% | IC50 [1]: 1.8 µM

O=[N+]([O-])c1cccc(CC(O)(P(=O)(O)O)P(=O)(O)O)c1 [Compound 256A]
% Inhibition of AZT excision [2]: 66% | IC50 [1]: 2.5 µM

O=P(O)(O)C(O)(Cc1cccc2ccccc12)P(=O)(O)O [Compound 257A]
IC50 [1]: 1.35 µM

O=P(O)(O)C(Nc1cccc(Cc2ccccc2)c1)P(=O)(O)O [Compound 262A]
% Inhibition of AZT excision [2]: 66% | IC50 [1]: 4.2 µM

O=P(O)(O)C(O)(Cc1cccc(I)c1)P(=O)(O)O [Compound 279A]
IC50 [1]: 1.1 µM

O=P(O)(O)C(Nc1cccc(CO)c1)P(=O)(O)O [Compound 280A]
IC50 [1]: 7.9 µM

COCc1cccc(NC(P(=O)(O)O)P(=O)(O)O)c1 [Compound 281A]
IC50 [1]: 9.5 µM

CN(C)Cc1cccc(CC(O)(P(=O)(O)O)P(=O)(O)O)c1 [Compound 289A]
IC50 [1]: 8.3 µM

O=P(O)(O)C(Cn1cnc2ccccc21)P(=O)(O)O [Compound 298A]
IC50 [1]: 13.5 µM

O=P(O)(O)C(Nc1cccc(Br)c1)P(=O)(O)O [Compound 302A]
IC50 [1]: 1 µM

O=[N+]([O-])c1cccc(NC(P(=O)(O)O)P(=O)(O)O)c1 [Compound 304A]
IC50 [1]: 2.7 µM

CC(C)CCNCC(P(=O)(O)O)P(=O)(O)O [Compound 311A]
IC50 [1]: 15.5 µM

O=P(O)(O)C(CNc1cccc(-c2ccccc2)c1)P(=O)(O)O [Compound 312A]
IC50 [1]: 11.3 µM

O=P(O)(O)C(O)(Cc1cccc(-c2ccc(F)cc2)c1)P(=O)(O)O [Compound 313A]
IC50 [1]: 1.9 µM

O=P(O)(O)C(O)(Cc1cccc(-c2ccc(Cl)cc2)c1)P(=O)(O)O [Compound 314A]
IC50 [1]: 0.9 µM

COc1ccc(-c2cccc(CC(O)(P(=O)(O)O)P(=O)(O)O)c2)cc1 [Compound 315A]
IC50 [1]: 2.4 µM

O=P(O)(O)C(Nc1cccc(-c2ccc(F)cc2F)c1)P(=O)(O)O [Compound 316A]
IC50 [1]: 3.9 µM

O=P(O)(O)C(Nc1cccc(-c2cc(F)cc(F)c2)c1)P(=O)(O)O [Compound 317A]
IC50 [1]: 2.1 µM

O=P(O)(O)C(O)(Cc1ccc(-c2ccc(F)cc2)cc1)P(=O)(O)O [Compound 325A]
IC50 [1]: 2.9 µM

O=P(O)(O)C(O)(Cc1ccc(-c2ccc(Cl)cc2)cc1)P(=O)(O)O [Compound 326A]
IC50 [1]: 3.9 µM

O=P(O)(O)C(Nc1cccc(-c2ccc(F)c(F)c2)c1)P(=O)(O)O [Compound 327A]
IC50 [1]: 2.1 µM

O=P(O)(O)C(O)(CC12CC3CC(CC(C3)C1)C2)P(=O)(O)O [Compound 329A]
IC50 [1]: 4.6 µM

O=P(O)(O)C(CNc1ccc(-c2ccccc2)cc1)P(=O)(O)O [Compound 331A]
IC50 [1]: 4.6 µM

O=P(O)(O)C(Nc1ccc(Cc2ccccc2)cc1)P(=O)(O)O [Compound 332A]
IC50 [1]: 3.5 µM

COc1ccc(-c2ccc(CC(O)(P(=O)(O)O)P(=O)(O)O)cc2)cc1 [Compound 333A]
IC50 [1]: 5.2 µM

O=P(O)(O)C(O)(Cc1cccc(-c2cc(F)ccc2F)c1)P(=O)(O)O [Compound 334A]
IC50 [1]: 1.5 µM

O=P(O)(O)C(O)(Cc1cccc(-c2ccc(F)c(F)c2)c1)P(=O)(O)O [Compound 336A]
IC50 [1]: 1 µM

O=P(O)(O)C(O)(Cc1cccc(Oc2ccccc2)c1)P(=O)(O)O [Compound 339A]
IC50 [1]: 3.3 µM

Cc1ccc(NC(P(=O)(O)O)P(=O)(O)O)cc1-c1ccccc1 [Compound 340A]
IC50 [1]: 5 µM

COc1cccc(CC(O)(P(=O)(O)O)P(=O)(O)O)c1 [Compound 341A]
IC50 [1]: 5.4 µM

O=P(O)(O)C(O)(Cc1ccc(Cl)c(Cl)c1)P(=O)(O)O [Compound 342A]
IC50 [1]: 0.4 µM

O=C(O)P(=O)(O)O [Foscarnet, phosphonoformic acid, reference compound]
concentration dependence of inhibition of ATP-mediated excision of AZT ([2]; increasing concentration, FIG. 3): did not inhibit ATP-mediated excision of AZT as well as 218A
